According to US20120016010A1, “RNA Interference Mediated Inhibition of BTB and CNC Homology 1, Basic Leucine Zipper Transcription Factor 1 (BACH1) Gene Expression Using Short Interfering Nucleic Acid (siNA)” (Merck Sharp & Dohme Corp, priority 2009, published 2012):
[invAb] = inverted abasic unit; d = 2'-deoxy (DNA); m = 2'-O-methyl; r = 2'-OH (RNA); f = 2'-fluoro

Legend:
Bach1 mRNA [1] = experiment: Initial screen: Bach1 mRNA knock-down in human A549 cells (96-well transfection, quantitative RT-PCR); format: cell-based; details: Bach1 mRNA, 10 nM siNA, human A549 cells, n = 2, mean ± S.D., normalized to GAPDH and non-targeting control, 24 hrs post-transfection
Experimental: (§1) All cells were obtained from ATCC (Manassas, Va.) unless otherwise indicated. Cells were grown and transfected under standard conditions, which are detailed below for each cell line.
(§2) Cells were plated in all wells of a tissue-culture treated, 96-well plate at a final count of 5000 cells/well in 100 μL of the appropriate culture media. The cells were cultured for 24 hours after plating at 37° C. in the presence of 5% CO2.
(§3) After 24 hours, complexes containing siNA and RNAiMax were created as follows: A solution of RNAiMax diluted 33-fold in OPTI-MEM was prepared. […] After incubation of RNAiMax/OPTI-MEM solution at room temperature for 5 min, an equal volume of the siNA solution and the RNAiMax solution were added together for each of the siNAs.
(§4) This solution was incubated at room temperature for 20 minutes. After incubation, 20 uL of the solution was added to each of the relevant wells. The final concentration of siNA in each well was 10 nM and the final volume of RNAiMax in each well was 0.3 ul. […]
(§5) Briefly, a 60 uL (1 plate) or 110 uL (2 plates) of the Lysis Solution with DNase I was dispensed into each well of the Lysis Buffer Plate (twin.tec full skirt plate). The lysis buffer and stop plates were stored at 4° C. until the cells were washed.
(§6) The plate was spun at 1100 rpm for 5 minutes. The culture medium was aspirated and discarded from the wells of the culture plate. The lysis was performed automatically using a BioMek FX instrument and method. After the Biomek method was completed, the lysis plate was incubated for 2 min at room temperature. The lysis plate can be stored for 2 hours at 4° C., or at −20° C. or −80° C. for two months.
(§7) Each well of the reverse transcription plate required 10 uL of 2× reverse transcriptase Buffer, 1 uL of 20× reverse transcription enzyme and 2 uL of nuclease-free water. The reverse transcription master mix was prepared by mixing 2× reverse transcription buffer, 20× reverse transcription enzyme mix, and nuclease-free water. 13 uL of the reverse transcription master mix was dispensed into each well of the reverse transcription plate (semi-skirted). A separate reverse transcription plate was prepared for each cell plate. The plate was loaded onto a Biomek NX or Biomek FX Dual −96 and the Biomek method was run. The program is programmed to automatically added 7 uL of lysate from the cell lysis procedure described above into each well of the reverse transcription plate. The plate is sealed and spun on a centrifuge (1000 rpm for 30 seconds) to settle the contents to the bottom of the reverse transcription plate. The plate is placed in a thermocycler at 37° C. for 60 min, 95° C. for 5 min, and 4° C. until the plate is removed from the thermocycler. Upon removal, if not used immediately, the plate was frozen at −20° C.
(§8) A series of probes and primers were used to detect the various mRNA transcripts of the genes of Bach1, HMOX-1, and GAPDH in mouse and human cell lines. The assays were performed on an ABI 7900 instrument, according to the manufacturer's instructions. […] The PCR reactions were carried out at 50° C. for 2 min, 95° C. for 20 min followed by 40 cycles at 95° C. for 15 secs and 60° C. for 1 min
(§9) Within each experiment, the […] was set in the exponential phase of the amplification curve, and based on the intersection point of the baselines with the amplification curve, a Ct value was assigned by the instrument.
(§10) The expression level of the gene of interest and % knock-down was calculated using Comparative Ct method:
(§11) ΔCt=ΔCt(Target siRNA)−ΔCt(NTC)
(§12) Relative expression level=2^−ΔΔCt
(§13) The non-targeting control siNA was, unless otherwise indicated, chosen as the value against which to calculate the % knock-down, because it is the most relevant control.

Bach1 mRNA [2] = experiment: Initial screen: Bach1 mRNA knock-down in mouse NIH 3T3 cells (96-well transfection, quantitative RT-PCR); format: cell-based; details: mouse NIH3T3 cells, n = 2, 24 hrs post-transfection, protocol 10 nM siNA
Experimental: as §1, §2, §3, §4, §5, §6, §7, §8, §9, §10, §11, §12, §13

Substance | % KD (Bach1 mRNA [1]) | % KD (Bach1 mRNA [2])
29948-DC: Bach1 siNA duplex, target site 1285; sense B GcGAGAAGuGGcAGAAcAc TTB (SEQ 45); antisense GUGuucuGccACuuCuCGcUU (SEQ 46) (sense GCGAGAAGUGGCAGAACACTT; antisense GUGUUCUGCCACUUCUCGCUU; sense: DNA at AGT, 2'-fluoro at CU, [invAb] at 5' end, 3' end, backbone not given here; antisense: sugars from the 5' end rrrffffmffmmffmfmmfmm, backbone not given here) | 51.9 ± 3^ % | −16.3 ± 12.6%
29949-DC: Bach1 siNA duplex, target site 664; sense B GuGuAAAcuccGcAGGuAu TTB (SEQ 47); antisense AUAccuGcGGAGuuuAcAcUU (SEQ 48) (sense GUGUAAACUCCGCAGGUAUTT; antisense AUACCUGCGGAGUUUACACUU; sense: DNA at AGT, 2'-fluoro at CU, [invAb] at 5' end, 3' end, backbone not given here; antisense: sugars from the 5' end rrrfffmfmmmmfffmfmfmm, backbone not given here) | 25 ± 1.4% | −7.1 ± 5.2%
29950-DC: Bach1 siNA duplex, target site 470; sense B GAGGAAuccuGcuuucAGu TTB (SEQ 49); antisense ACUGAAAGcAGGAuuccucUU (SEQ 50) (sense GAGGAAUCCUGCUUUCAGUTT; antisense ACUGAAAGCAGGAUUCCUCUU; sense: DNA at AGT, 2'-fluoro at CU, [invAb] at 5' end, 3' end, backbone not given here; antisense: sugars from the 5' end rrrmmmmmfmmmmffffffmm, backbone not given here) | 90.6 ± 1.7% | 42.5 ± 6.4%
29951-DC: Bach1 siNA duplex, target site 1162; sense B GccuuuGucAGGuAcAGAc TTB (SEQ 51); antisense GUCuGuAccuGAcAAAGGcUU (SEQ 52) (sense GCCUUUGUCAGGUACAGACTT; antisense GUCUGUACCUGACAAAGGCUU; sense: DNA at AGT, 2'-fluoro at CU, [invAb] at 5' end, 3' end, backbone not given here; antisense: sugars from the 5' end rrrfmfmfffmmfmmmmmfmm, backbone not given here) | 39 ± 11.2% | −22 ± 13.2%
29952-DC: Bach1 siNA duplex, target site 732; sense B cAuAuGAGuccAuGuGcuu TTB (SEQ 53); antisense AAGcAcAuGGAcucAuAuGUU (SEQ 54) (sense CAUAUGAGUCCAUGUGCUUTT; antisense AAGCACAUGGACUCAUAUGUU; sense: DNA at AGT, 2'-fluoro at CU, [invAb] at 5' end, 3' end, backbone not given here; antisense: sugars from the 5' end rrrfmfmfmmmfffmfmfmmm, backbone not given here) | 75 ± 0.9% | −15.7 ± 1.8%
29953-DC: Bach1 siNA duplex, target site 1096; sense B cAcAuAuGAccAAuAuGGu TTB (SEQ 55); antisense ACCAuAuuGGucAuAuGuGUU (SEQ 56) (sense CACAUAUGACCAAUAUGGUTT; antisense ACCAUAUUGGUCAUAUGUGUU; sense: DNA at AGT, 2'-fluoro at CU, [invAb] at 5' end, 3' end, backbone not given here; antisense: sugars from the 5' end rrrmfmffmmffmfmfmfmmm, backbone not given here) | 24 ± 14.1% | −11 ± 3.3%
29954-DC: Bach1 siNA duplex, target site 1389; sense B cAGAAcAGAucucAcAGAA TTB (SEQ 57); antisense UCCuGuGAGAucuGuucuGUU (SEQ 58) (sense CAGAACAGAUCUCACAGAATT; antisense UCCUGUGAGAUCUGUUCUGUU; sense: DNA at AGT, 2'-fluoro at CU, [invAb] at 5' end, 3' end, backbone not given here; antisense: sugars from the 5' end rrrfmfmmmmfffmffffmmm, backbone not given here) | 63.4 ± 0.9% | −10.2 ± 10.1%
29955-DC: Bach1 siNA duplex, target site 737; sense B GAGuccAuGuGcuuAGAGA TTB (SEQ 59); antisense UCUcuAAGcAcAuGGAcucUU (SEQ 60) (sense GAGUCCAUGUGCUUAGAGATT; antisense UCUCUAAGCACAUGGACUCUU; sense: sugars from the 5' end rrrfffdfdfdfffddddddd, [invAb] at 5' end, 3' end, backbone not given here; antisense: sugars from the 5' end rrrffmmmfmfmfmmmfffmm, backbone not given here) | 14.6 ± 0.2% | −12.2 ± 4.3%
29958-DC: Bach1 siNA duplex, target site 851; sense B GucAAAGAcAuucAuGcuu TTB (SEQ 65); antisense AAGcAuGAAuGucuuuGAcUU (SEQ 66) (sense GUCAAAGACAUUCAUGCUUTT; antisense AAGCAUGAAUGUCUUUGACUU; sense: DNA at AGT, 2'-fluoro at CU, [invAb] at 5' end, 3' end, backbone not given here; antisense: sugars from the 5' end rrrfmfmmmfmfffffmmfmm, backbone not given here) | 75.7 ± 8.6% | −50.4 ± 6.8%
29959-DC: Bach1 siNA duplex, target site 1415; sense B GAGuGuccGuGGuuAGGuA TTB (SEQ 67); antisense UACcuAAccAcGGAcAcuCUU (SEQ 68) (sense GAGUGUCCGUGGUUAGGUATT; antisense UACCUAACCACGGACACUCUU; sense: DNA at AGT, 2'-fluoro at CU, [invAb] at 5' end, 3' end, backbone not given here; antisense: chemistry not given here; in key) | 68 ± 14.9% | −9.9 ± 3.8%
29960-DC: Bach1 siNA duplex, target site 1377; sense B ccAAAGAuGGcucAGAAcA TTB (SEQ 69); antisense UGUucuGAGccAucuuuGGUU (SEQ 70) (sense CCAAAGAUGGCUCAGAACATT; antisense UGUUCUGAGCCAUCUUUGGUU; sense: DNA at AGT, 2'-fluoro at CU, [invAb] at 5' end, 3' end, backbone not given here; antisense: sugars from the 5' end rrrfffmmmffmfffffmmmm, backbone not given here) | 34 ± 3% | 5.9 ± 6.4%
29962-DC: Bach1 siNA duplex, target site 1240; sense B cAGGGAAGAuAGuAGuGuu TTB (SEQ 73); antisense AACAcuAcuAucuucccuGUU (SEQ 74) (sense CAGGGAAGAUAGUAGUGUUTT; antisense AACACUACUAUCUUCCCUGUU; sense: DNA at AGT, 2'-fluoro at CU, [invAb] at 5' end, 3' end, backbone not given here; antisense: sugars from the 5' end rrrmffmffmffffffffmmm, backbone not given here) | 88 ± 0.7% | 21.3 ± 2.2%
